Laboratory results from ChEMBL document CHEMBL3507680, “University of Dundee, Gates Library screen for HepG2 cell viability”.
Several values for one entry are separate records, joined by “and”; a condition that tells them apart may be missing. Equal entries are not always repeated.

Legend:
[1] = Human HepG2 cell viability dose-response assay; assay type: toxicity, cell-based
[2] = Human HepG2 cell viability assay in 384 well format; assay type: toxicity, cell-based; parameters: dose 125 nL, time 70.5 hour; concentration not given beside the values; conditions: HepG2 cells, read-out: Inhibition

SMILES | BOTTOM [1] | HILLSLOPE [1] | TOP [1] | pXC50 [1] | cytotoxicity at 70.5 h [2] [%]
COc1nn(C)c2c1CCCN(C(=O)c1ccc3c(c1)OCO3)C2.O=C(O)C(F)(F)F | 0 | 0 | 0 | < 4.53 | 77.9
Cc1nc(Nc2nccs2)cc(C2CCCN2)n1.Cl (configuration not stated) | 11.4 and 11.68 | 4.445 and 3.614 | 100.1 and 100.5 | 5.52 and 5.57 | 101
COc1ccc(CNC(Cc2ccsc2)c2ccc(C)cn2)c(OC)c1 (configuration not stated) | – | 2.726 and 2.464 | 91.22 and 91.65 | 5.292 and 5.344 | 85.3
CC(C)n1ccc(C(=O)NCC(O)c2c(Cl)cccc2Cl)n1 (configuration not stated) | 0 | 0 | 0 | < 4.53 | 65.8
COCc1noc(-c2ccc(N(C)Cc3ncccc3C)nc2)n1 | -13.69 and -12.76 | 1.85 and 1.799 | 100 | 5.092 | 73.3
Cc1cccc(CN2CCCC2c2cccc(Nc3nccs3)n2)c1 (configuration not stated) | – | 2.773 and 1.557 | 82.62 and 100 | 6.512 and 6.485 | 84.1
CC(C)c1cc(NC(=O)Cn2cnc3ccccc3c2=O)[nH]n1 | -4.443 and -6.453 | 2.259 and 2.3 | 101.3 and 101.4 | 5.61 and 5.595 | 104
CC(C)CNc1cc(-c2c[nH]nc2C2CCN(C(=O)C3CC3)C2)ccn1 (configuration not stated) | -0.825 and -1.513 | 7.855 and 3.586 | 97.39 and 97.86 | 6.385 and 6.436 | 95.1
CC(C)c1ccc(CN2C(=O)C3(CCNCC3)Nc3ccccc32)cc1 | -7.959 and -9.531 | 9.317 and 9.377 | 102.3 and 101.9 | 4.989 and 5.005 | 105
CC(C)Nc1cc(-c2c[nH]nc2C2CCN(C(=O)C3CC3)C2)ccn1 (configuration not stated) | – | 3.535 and 2.719 | 97.3 and 97.69 | 6.519 and 6.486 | 96.7
Clc1ccccc1C1(c2ccnc(C3CCCC3)n2)CCNCC1 | 17.52 and 27.16 | 2.801 and 2.528 | 108.2 and 108.3 | 5.086 and 5.104 | 73
O=C(c1cccc2cccnc12)N1CC[C@@]2(CCCO2)[C@@H](O)C1 | -1.598 and -1.635 | 1.904 and 1.967 | 100 | 4.773 and 4.744 | 74.5
c1cncc(CN2CCCn3nnc(CN4CCCCC4)c3C2)c1 | 0 | 0 | 0 | < 4.53 | 65.6
C=Cc1ccc(CN2C(=O)C3(CCNCC3)Nc3ccccc32)cc1 | -4.877 and -3.437 | 10.74 and 12.71 | 102 | 5.033 and 5.016 | 102
Cc1cc(C)cc(C(=O)NCCCNc2ncccn2)c1 | -7.868 and -9.506 | 17.28 and 6.436 | 100.1 and 99.9 | 5.413 | 101
Cc1cccc(C)c1Nc1noc2c1CN(C(=O)c1ccnn1C)CC2 | -5.714 and -2.53 | 1.878 and 1.75 | 100 | 4.825 and 4.807 | 69.8
CCc1ccc(-c2cc(C(F)(F)F)nc(N3CCC(N)CC3)n2)cc1 | 0.817 and 1.062 | 8.779 and 6.129 | 102.2 and 102.5 | 5.566 and 5.542 | 101
CCS(=O)(=O)N1CCc2ccc(NC(=O)Nc3cccc(SC)c3)cc21 | -6.506 and -6.611 | 1.266 and 1.157 | 100 | 5.029 and 4.966 | 63.9
CN(C(=O)[C@H]1CSCN1C(=O)OC(C)(C)C)C1CC1 | 0 | 0 | 0 | < 4.53 | 73.6
COc1cc(NC(=O)C2CC(=O)N(c3cccc(Br)c3)C2)ncn1 (configuration not stated) | 13.61 and 20.88 | 5.533 and 3.735 | 100.7 and 101.2 | 5.491 and 5.506 | 91.5
O=C(C[C@@H]1COC[C@H]2CN(C3CCOCC3)C[C@@H]12)Nc1cnccn1 | 0 | 0 | 0 | < 4.53 | 76.4
